In patent US20060134119A1, “Drugs containing galectin 9” (priority 2003, published 2006):
Residues, ends and D or L forms follow the SMILES beside them. *: point of attachment. Cbz = O=C(OCc1ccccc1)*; CH2F = FC*

Columns and labels:
MOLT-4 cells [1] = test: Ca2+ influx, Fluo-3 assay by flow cytometry; assay type: cell-based, human; conditions: FIG. 8; for effect on calcium influx induced by Gal-9: 30 mM lactose or sucrose
Experimental: Cells (approx. 10^6 to 10^7 cells/mL) in the culture medium (10% FCS, RPMI-1640 containing 10 mM HEPES, pH 7.2) were incubated with fluo-3 AM (final concentration 10 μM, Dojindo, Kumamoto, Japan), an intracellular calcium indicator, at 37° C. for 30 min (Sharp, B. M. et al., Proc. Natl. Acad. Sci. USA, 93: 8294 (1996)). Then the cells were washed and resuspended in the culture medium (final concentration, approx. 2×10^5 cells/mL per sample). Intracellular calcium level was measured by flow cytometry. The resting cells were stimulated at 1 min after their fluorescence intensities were measured.
Next, sequential measurement was restarted until different stimuli were applied. In lactose inhibition assay, cells were stimulated in the presence of 30 mM lactose. Sucrose (30 mM) was used as a control (Sano, H. et al., J. Imnunol., 165: 2156 (2000)). A23187 (calcium ionophore, final concentration 5 ng/mL, Wako, Osaka, Japan) was used as a positive control.

Jurkat T cells = conditions: 16 hr incubation with 1 mM galectin-9, PI, FACS
Experimental: (§1) Cytotoxicities in Jurkat T cells, K-562 leukemic cells, and normal lymphocytes were measured by flow cytometry analysis using PI. That is, PI invades into the damaged target cells when PI is added for the last 15 min of 16 hr incubation with 1 mM galectin-9. Fluorescence generated by PI is measured by FACS. Untreated cells were used as a negative control group, formalin-fixed cells as a 100% dead cell group, and H2O2 (hydrogen peroxide solution)-treated cells as a positive control group, respectively.

K-562 leukemic cells = conditions: 16 hr incubation with 1 mM galectin-9, PI, FACS
Experimental: as §1

normal lymphocytes = conditions: Normal Lymphocyte; 16 hr incubation with 1 mM galectin-9; PI, FACS
Experimental: as §1

MOLT-4 cells [2] = test: Inhibition of Gal-9- or other stimulus-induced apoptosis by lactose, caspase and calpain inhibitors; assay type: cell-based, human; conditions: for inhibition of TNF-α-induced apoptosis / inhibition of anti-Fas Ab-induced apoptosis / inhibition of C2 ceramide-induced apoptosis / inhibition of DEX-induced apoptosis: caspase inhibitors; for inhibition of TNF-α-induced apoptosis / inhibition of anti-Fas Ab-induced apoptosis / inhibition of C2 ceramide-induced apoptosis / inhibition of DEX-induced apoptosis / inhibition of Gal-9-induced apoptosis: FIG. 5; for inhibition of Gal-9-induced apoptosis: inhibitor at 10 μM, added 1 hr before Gal-9 stimulation; for effect on pro-apoptosis activity by Gal-9: 30 mM lactose or sucrose, FIG. 2
Experimental: MOLT-4 (T cell), Jurkat (T cell), BALL-1 (B cell), THP-1 (acute monocytic leukemia derived cell), and HL60 (acute promyelotic leukemia derived cell) cells were obtained from American Type Culture Collection (ATCC). All the cell lines were maintained in an RPMI-1640 medium (Sigma, St. Louis, US) supplemented with 10% FCS in 5% Co2 at 37° C. Lactose (30 mM) was added to the culture medium to inhibit Gal-9 activity. The same concentration of sucrose was used as a control. Cells were incubated with Gal-9 in the presence of Z-VAD-FMK (pan-caspase inhibitor), Z-YVAD-FMK (caspase-1 inhibitor), Z-IETD-FMK (caspase-8 inhibitor), Z-LEHD-FMK (caspase-9 inhibitor), Z-ABVD-FMK (caspase-lo inhibitor), or Z-LLY-FMK (calpain inhibitor) (BioVision, CA, US), at 10 μM, and the participation of caspase or calpain in the Gal-9-induced apoptosis was examined. Z-FA-FMK (BioVision, CA, US) was used as a control (Vu C. C. et al., J. Biol. Chem., 276: 37602 (2001) and Sweeney E. A. et al., FEBs Lett., 425: 61 (1998)). Each inhibitor was added 1 hr before Gal-9 stimulation. The following agents were purchased from suppliers below: DEX (BioVision, CA, US), anti-Fas Ab (clone CH-11, MBL), TNFα (Genzyme, Cambridge, Mass., US), C2 ceramide (SIGMA), and etoposide (Biovision).

MOLT-4 cells [3] = test: as above; assay type: cell-based, human; conditions: inhibitor at different concentrations; FIG. 6, FIG. 7
CD4+ T cells = test: Apoptosis induction in peripheral blood CD4+ T cells, resting or anti-CD3 Ab-activated; assay type: cell-based, human; conditions: galectin (+), 1 μM rGal-9
Experimental: (§2) To prepare a well plate coated with anti-CD3 Ab, 24 well palates were incubated with TBS solution (pH 8.0) containing 3 μg/mL anti-CD3 Ab (Inmunotech, Marseille, France) per well at 4° C. overnight, and each well was washed with PBS after removing anti-CD3 Ab solution.
(§3) Mononuclear leukocyte fractions were isolated from heparinized blood using HISTOPAQUE (Registered trademark, SIGMA). CD4-Positive Isolation Kit (DYNAL, Oslo, Norway) was used for isolation of CD4+ T cells and Dynabeads M-450 CD8 (Registered trademark, DYNAL, Oslo, Norway) for isolation of CD8+ T cells, respectively, according to the manufacturer's instructions.
(§4) To activate T cells, CD4+ or CD8+ cells at 1×10^6 cells/mL in an RPMI-1640 medium containing 10% FCS were incubated on the plate coated with anti-CD3 Ab for 20 to 24 hr at 37° C. in a 5% CO2 incubator, and incubated with rGal-9 [(His)6-Gal-9(S)] at 37° C. in a 5% CO2 incubator. Then apoptosis assay was conducted as described in (c). That is, cells were incubated with 50 μg/mL PI (SIGMA) at 37° C. for 10 min in the dark. Stained cells were analyzed by flow cytometry (Sandstrom, K. et al., J Immunol Methods, 240: 55 (2000) and Zhang L. et al., Cancer Lett, 142: 129 (1999)).
(§5) Apoptosis assay was also conducted for non-activated (resting) T cells as described above after incubating them with rGal-9 [(His)6-Gal-9(S)] at 37° C. in a 5% Co2 incubator.
(§6) For comparison, galectin-1 and -3 treated cells were analyzed.
(§7) Next, apoptosis induction by Gal-9 in human peripheral blood T cells was examined. T cells were separated into CD4+ and CD8+ T cells followed by incubation in the presence or absence of anti-CD3 Ab. Resting T cells and anti-CD3 Ab-activated T cells were incubated with 1 μM rGal-9.

CD8+ T cells = test: Apoptosis induction in peripheral blood CD8+ T cells, resting or anti-CD3 Ab-activated; assay type: cell-based, human; conditions: galectin (+), 1 μM rGal-9
Experimental: as §2, §3, §4, §5, §6, §7

MM-RU = test: Induction of cell aggregation in MM-RU; assay type: cell-based, human; conditions: controls, at the dose of at least 1 μM
Experimental: Recombinant galectin-9 prepared via gene transfer into E. coli was added to MM-RU exogenously, and the efficacy of galectin-9 was then examined. As a result, galectin-9 induced aggregation of MM-RU at the concentration of 0.1 μM or higher. In addition, the galectin-9 efficacy was concentration-dependent, and significant between 0.3-1.0 μM.

CD4 T Cell = test: Apoptosis induction in non-activated normal CD4 T cells (Table 4); assay type: cell-based; conditions: 1 μM galectin-9, 1 μM galectin-3
Experimental: (§8) For example, measurements of apoptosis induction in the presence of 1 μM galectin-9 are as shown in Table 4 below (also 1 μM for galectin-3 in Table 4).

CD8 T Cell = test: Apoptosis induction in non-activated normal CD8 T cells (Table 4); assay type: cell-based; conditions: 1 μM galectin-9, 1 μM galectin-3
Experimental: as §8

[4] = CD3 (+) cells activated on anti-CD3 Ab-coated plates
[5] = CD3 (−) untreated resting cells

CNc1ccc2oc(C[C@H]3O[C@@]4(CC[C@H]3C)O[C@H]([C@H](C)C(=O)c3ccc[nH]3)[C@H](C)C[C@H]4C)nc2c1C(=O)O [A23187]
calcium influx (MOLT-4 cells [1]; Fluo-3 assay, A23187 final concentration 5 ng/mL): significantly induced

OO [H2O2, hydrogen peroxide solution, reference compound]
cytotoxicity, 16 hours (Jurkat T cells): 97.7
cytotoxicity, 16 hours (K-562 leukemic cells): 99.2
cytotoxicity, 16 hours (normal lymphocytes): 96.8

COC(=O)CC[C@H](NC(=O)[C@H](C)NC(=O)OCc1ccccc1)C(=O)N[C@H](C(=O)N[C@@H](CC(=O)OC)C(=O)CF)C(C)C [Z-AEVD-FMK] (Cbz-AE(OMe)VD(OMe)-CH2F)
inhibition of TNF-α-induced apoptosis (MOLT-4 cells [2]): inhibited
inhibition of anti-Fas Ab-induced apoptosis (MOLT-4 cells [2]): inhibited

CC[C@H](C)[C@H](NC(=O)OCc1ccccc1)C(=O)N[C@@H](CCC(=O)OC)C(=O)N[C@H](C(=O)N[C@@H](CC(=O)OC)C(=O)CF)[C@@H](C)O [Z-IETD-FMK] (Cbz-IE(OMe)TD(OMe)-CH2F)
inhibition of TNF-α-induced apoptosis (MOLT-4 cells [2]): inhibited
inhibition of anti-Fas Ab-induced apoptosis (MOLT-4 cells [2]): inhibited

COC(=O)CC[C@H](NC(=O)[C@H](CC(C)C)NC(=O)OCc1ccccc1)C(=O)N[C@@H](Cc1cnc[nH]1)C(=O)N[C@@H](CC(=O)OC)C(=O)CF [Z-LEHD-FMK] (Cbz-LE(OMe)HD(OMe)-CH2F)
inhibition of C2 ceramide-induced apoptosis (MOLT-4 cells [2]): inhibited

CC(C)CC(NC(=O)OCc1ccccc1)C(=O)NC(CC(C)C)C(=O)NC(Cc1ccc(O)cc1)C(=O)CF (stereo not drawn) [Z-LLY-FMK] (Cbz-Leu-Leu-Tyr-CH2F; configuration not given here)
inhibition of Gal-9-induced apoptosis, dose dependence (MOLT-4 cells [3]): in a dose dependent manner

COC(=O)C[C@H](NC(=O)[C@H](C)NC(=O)[C@@H](NC(=O)OCc1ccccc1)C(C)C)C(=O)CF [Z-VAD-FMK] (Cbz-Val-Ala-Asp(OMe)-CH2F)
inhibition of C2 ceramide-induced apoptosis (MOLT-4 cells [2]): inhibition
inhibition of DEX-induced apoptosis (MOLT-4 cells [2]): inhibition
inhibition of TNF-α-induced apoptosis (MOLT-4 cells [2]): inhibition
inhibition of anti-Fas Ab-induced apoptosis (MOLT-4 cells [2]): inhibition
inhibition of Gal-9-induced apoptosis (MOLT-4 cells [2]): almost completely inhibited
inhibition of Gal-9-induced apoptosis, dose dependence (MOLT-4 cells [3]): in a dose-dependent manner

COC(=O)C[C@H](NC(=O)[C@H](C)NC(=O)[C@@H](NC(=O)[C@H](Cc1ccc(O)cc1)NC(=O)OCc1ccccc1)C(C)C)C(=O)CF [Z-YVAD-FMK]
inhibition of DEX-induced apoptosis (MOLT-4 cells [2]): inhibited
inhibition of Gal-9-induced apoptosis (MOLT-4 cells [2]): inhibited
inhibition of Gal-9-induced apoptosis, dose dependence (MOLT-4 cells [3]): in a dose-dependent manner

OC[C@H]1O[C@@H](O[C@H]2[C@H](O)[C@@H](O)C(O)O[C@@H]2CO)[C@H](O)[C@@H](O)[C@H]1O (some centres unmarked) [lactose, Lactose]
effect on pro-apoptosis activity by Gal-9 (MOLT-4 cells [2]): almost completely inhibited
effect on calcium influx induced by Gal-9 (MOLT-4 cells [1]): inhibited

OC[C@H]1O[C@@](CO)(O[C@H]2O[C@H](CO)[C@@H](O)[C@H](O)[C@H]2O)[C@@H](O)[C@@H]1O [sucrose]
effect on pro-apoptosis activity by Gal-9 (MOLT-4 cells [2]): not
effect on calcium influx induced by Gal-9 (MOLT-4 cells [1]): not inhibited

Galectin-1: galectin used for comparison / control
apoptosis induction, CD4 (CD4+ T cells; [4]): 13.9
apoptosis induction, CD4 (CD4+ T cells; [5]): 8.1
apoptosis induction, CD8 (CD8+ T cells; [4]): 19
apoptosis induction, CD8 (CD8+ T cells; [5]): 9.6
aggregation (MM-RU): No obvious aggregation

Galectin-3: galectin used for comparison / control
apoptosis induction, CD4 (CD4+ T cells; [4]): 15.7
apoptosis induction, CD4 (CD4+ T cells; [5]): 9.6
apoptosis induction, CD8 (CD8+ T cells; [4]): 20.9
apoptosis induction, CD8 (CD8+ T cells; [5]): 14.7
apoptosis induction, CD4 T Cell Resting (CD4 T Cell): 10.3
apoptosis induction, CD8 T Cell Resting (CD8 T Cell): 15.9
aggregation (MM-RU): No obvious aggregation
